# Values joined by “and” are separate entries in the source; they are usually repeats but may differ in a detail not shown here. Equal entries are not always repeated.
# Key:
# [1] = tested on: rabbit thoracic aorta rings; assay: Oxygen-dependent rabbit aortic ring bioassay of Hb, SNO-Hb, GSNO and SNO-RBCs
# Sprague-Dawley rats = assay: Local cerebral blood flow by H2-sensitive microelectrodes; assay type: in vivo, rat; conditions: for local cerebral blood flow: 1 μmol/kg infused over 3 minutes
# Method: Adult male Sprague-Dawley rats (290-350 g) were anesthetized with sodium pentobarbital (50 mg/kg IP), intubated and ventilated with a small animal respirator (Edco Scientific Inc., Chapel Hill, N.C.) at a rate and tidal volume to maintain normal values of PaCO2 (35-45 mm Hg; PaCO2=systemic arterial blood carbon dioxide tension). The femoral vein and artery were cannulated for infusion of drugs and for continuous monitoring of systemic blood pressure, respectively. Aliquots of arterial blood (200 μl) were drawn periodically to measure blood gas tensions and pH (Instrumentation Laboratory Co., model 1304 blood gas/pH analyzer). The blood was replaced intravenously with three volumes of normal saline. The inspired O2 concentration was varied using premixed gases balanced with nitrogen. The tissue PO2 was measured continuously with polarographic platinum microelectrodes (50 μm O.D. coated with hydrophobic gas permeable Nafion) implanted stereotaxically in both the right and left hippocampus (AP−3.4 mm, ML+2.2 mm), caudate putamen nucleus and substantia nigra (see coordinates below) (Young, W., Stroke, 11:552-564 (1980); Heiss, W. D. and Traupett, H., Stroke, 12:161-167 (1981); Dewhirst, M. W. et al., Cancer Res., 54:3333-3336 (1994); Kerger, H. et al., Am. J. Physiol., 268:H802-H810 (1995)). The PO2 electrodes were polarized to −0.65V against a distant Ag/AgCl reference located on the tail and the current flow was measured using a low-impedance nA-meter. Regional arterial PO2 was adjusted by changing the inspired O2 concentration and atmospheric pressure.
# Polarographic hydrogen (H2)-sensitive microelectrodes were implanted stereotaxically in the substantia nigra (AP −5.3 mm, ML −2.4 mm to the bregma, depth 3.2 mm), caudate putamen nucleus (CPN) (AP +0.8 mm, ML −2.5 mm, depth 5.2 mm) and parietal cortex, for measurement of regional blood flow (Young, W., Stroke, 11:552-564 (1980); Heiss, W. D. and Traupett, H., Stroke, 12:161-167 (1981)). The microelectrodes were made from platinum wire and insulated with epoxy, with the exception of the tip (1 mm) which was coated with Nafion. For placement, the electrodes were mounted on a micromanipulator and the rat's head was immobilized in a Kopf stereotaxic frame. H2-sensitive electrodes were polarized to +400 mV against a distant reference electrode on the tail, and the polarographic current was measured using a low-impedance nA meter during and after the inhalation of hydrogen gas (2.5%) for 1 min. Both the hydrogen clearance curves and voltage for oxygen measurements were made using PC WINDAQ (software, DI-200 AC, Dataq Instruments, Inc., Akron, Ohio). Cerebral blood flow was calculated using the initial slope method (Young, W., Stroke, 11:552-564 (1980); Heiss, W. D. and Traupett, H., Stroke, 12:161-167 (1981)). Regional blood flow responses were monitored for 30 min. prior to and 30 min. following drug administration; hemoglobins were given at time 0.
# The cerebrovascular effects of SNO-Hb were measured in adult male Sprague-Dawley rats using O2 and H2 (blood flow)-sensitive microelectrodes that were placed stereotaxically in several regions of the brain as for Example 11.
# Comparative effects of SNO-Hb (●) and Hb (▪) (1 μmol/kg infused over 3 minutes) on local blood flow in substantia nigra (SN), caudate putamen nucleus, and parietal cortex are shown for three different conditions. […] Baseline blood flow was decreased by ˜10% under 100% O2+3 ATA as compared to 100% O2. n=7 for all data points. Values of tissue/microvascular PO2 ranged from 19-37 mm Hg in 21% O2; from 68-138 mm Hg in 100% O2; and from 365-538 mm Hg in 100%+3 ATA (Duke University Medical Center Hyperbaric Chambers).
# Rats = assay: Hemodynamics (blood pressure) at different O2 concentrations; assay type: in vivo, rat; conditions: 1 μmol/kg infused over 1 minute; 10 min. post-infusion
# Method: Rats were anesthetized by intraperitoneal injection of pentobarbital, and the femoral arteries and veins accessed by local cutdown. The artery was then cannulated and the blood pressure monitored continuously using a P23 XL pressure transducer (Viggo Spectramed, Oxnard, Calif.) attached to a Gould recorder. The femoral vein was used for infusion of drugs and red blood cells containing SNO-Hb (1 ml over 1 min.) and an IBM PC (WINDAQ 200, Dataq Instruments, Inc.; Akron, Ohio) was used for data acquisition.
# Drugs were infused through the femoral vein at 1 μmol/kg infused over 1 minute after blood pressure had stabilized (approximately 30 min). Measurements shown (FIG. 11A) were taken at 10 min. post-infusion of drug. […] P<0.05 vs. SNO-Hb; *P<0.05, **P<0.01) vs. baseline blood pressure. n=5-6 for each drug.
# The hypotensive effects of SNO-RBCs were potentiated by pre-administration of the NO synthase inhibitor N^G-monomethyl-L-arginine (L-NMMA; 50 mg/kg). n=8 for each data point. Curves different by ANOVA (P<0.01), *P<0.05 vs. L-NMMA. The amount of hemolysis in these experiments was trivial. Infusion of the hemolysate had no effect on blood pressure.
# [2] = SNO-Hb decomposition and transnitrosation with glutathione; assay type: biochemical
# Method: The decomposition of SNO-Hb(FeII) is further accelerated by the presence of excess glutathione. Within the dead time of our measurements (˜15 sec) a major fraction of SNO-Hb(FeII) was converted to GSNO.
# Hbs in PBS (0.5 mM EDTA, pH 7.4) were incubated in air (oxy) or in a tonometer previously evacuated of O2 (deoxy). SNO-Hb(FeII)O2 decomposition was determined by the method of Saville (Saville, B., Analyst, 83:670-672 (1958)). Spontaneous decomposition of SNO-Hb(FeII) was followed spectrophotometrically by formation of Hb(FeII)NO. […] Rates of NO group transfer were too rapid to measure accurately by the standard methods used in this study.
# Data are presented as the amount of GSNO formed relative to the starting SNO-Hb concentration.
# Thiol/SNO-Hb exchange, forming GSNO, was verified chemically (Stamler, J. S., et al., Proc. Natl Acad. Sci. USA 89:444-448 (1992)) following trichloroacetic acid precipitation (n=5).
# vascular ring = assay: Vessel ring bioassay of SNO-Hb preparations, with or without glutathione; conditions: for effect of added glutathione on the dose-response: glutathione 100 μM in bioassay chambers; for activity in vascular ring bioassay: no glutathione
# Source text: Arterial red blood cells contain two physiologically important forms of hemoglobin: Hb(FeII)O2 and Hb(FeIII) (Antonini et al. (1971)). […] Such findings raise the possibility of functional consequences, perhaps influenced by the redox state of heme and its occupation by ligand.
# Details of the vessel ring bioassay have been published (Stamler, J. S., et al., Proc. Natl. Acad. Sci. USA 89:444-448 (1992)). SNO-Hb(FeII)O2 preparations were synthesized with 10-fold excess S-nitrosocysteine (CYSNO) over Hb(FeII)O2 protein (2% borate, 0.5 mM EDTA, ˜15 min incubation), after which desalting was performed across Sephadex G-25 columns. CYSNO was synthesized in 0.5 N HCl, 0.5 mM EDTA and then neutralized (1:1) in 1 M phosphate buffer containing 0.5 mM EDTA. […] The latter was synthesized by treatment of Hb(FeII)O2 with excess ferricyanide, followed by desalting across G-25 columns. SNO-Hb concentrations were verified spectroscopically and the S-nitrosothiol content was determined by the method of Saville (Stamler, J. S., et al., Proc. Nat. Acad. Sci. USA 89:444-448 (1992)). The S-NO/tetramer stoichiometry for both SNO-Hb preparations was ˜2. Oxidation of the heme was undetectable by uv-spectrophotometric methods.
# Sprague-Dawley rat = assay: Mean arterial pressure after femoral vein bolus of cell-free Hb and SNO-Hbs; assay type: in vivo; conditions: for blood pressure response: bolus
# Source text: Systemic administration of cell-free Hb results in hypertensive responses which have been attributed to NO scavenging by the heme (Vogel, W. M., et al., Am. J. Physiol. 251:H413-H420 (1986); Olsen, S. B., et al., Circulation 93:329-332 (1996)). To determine if SNO-Hb is free of this adverse affect, and to explore if in vitro mechanisms of NO release extend to the in vivo circumstance, we compared responses to Hb and SNO-Hb infused as a bolus into the femoral vein of anesthetized rats. […] Thus, the profiles of these compounds in vivo closely resemble those seen in vitro (FIG. 4A). […] These changes in mean blood pressure of ˜10% are on the order of those that differentiate normotension from hypertension in man, and in the therapeutic range of some antihypertensive regimens. […] The bioactivity of SNO-Hb in blood, where S—NO/heme stoichiometries approach 1:50,000, is a dramatic illustration of the resistence of this NO-related activity to Hb(Fe) inactivation.
# Administration of 2-200 nmol/kg Hb(FeII)O2 (as a bolus) into the femoral vein of a Sprague-Dawley rat is shown to increase mean arterial pressure in a dose-dependent manner. At 200 nmol/kg, mean arterial pressure increased by 25 mm Hg (20±3 mm Hg; n=4; P<0.05). Elevations in blood pressure reversed within 10-15 min. SNO-Hb(FeII)O2 infusions (over the same dose range) are shown to ameliorate Hb(FeII)O2-induced hypertension without causing overt changes in blood pressure. […] A fall in blood pressure was also seen with injection of erythrocytes containing SNO-Hb.
# Rats were anesthetized by intraperitoneal injection of pentobarbital and the femoral arteries and veins accessed by local cut down. The artery was then cannulated and the blood pressure monitored continuously using a Viggo Spectramed pressure transducer attached to a Gould recorder. An IBM PC (DATA Q Codas) was used for data acquisition.
# rat red blood cells = assay: S-nitrosylation of intraerythrocytic Hb (loading of red blood cells); assay type: cell-based; conditions: oxygenated rat red blood cells
# Method: Given that Hb is largely contained within red blood cells, potential mechanisms by which S-nitrosylation of intracellular protein might occur were explored. […] Rapid oxidation of Hb was not observed under these conditions. […] Thus, erythrocyte access of RSNOs is thiol group specific.
# Incubation of rat erythrocytes with S-nitrosocysteine (equimolar to heme (5 mM); phosphate buffer pH 7.4, 25° C.) leads to rapid formation of intracellular SNO-Hb(FeII)O2. […] By 60 min, 3 of the 4 available SH groups of Hb are S-nitrosylated (note that rat Hb contains 4 reactive SH groups). […] Spectrum A is that of SNO-Hb isolated from erythrocytes following G-25 chromatography. Treatment of A with dithionite results in reduction of the S—NO moiety, liberating free NO which is autocaptured by deoxy Hb, forming Hb(FeII)NO (note that dithionite simultaneously deoxygenates Hb) (spectrum C). […] The spectrum of Hb(FeII)NO containing 4 NO's per tetramer is shown for comparison (inset, spectrum B).
# At shown intervals, red blood cells were pelleted rapidly by centrifugation, washed three times, lysed in deionized water at 4° C., and the cytosolic fraction subjected to rapid desalting across G-25 columns. Intracellular SNO-Hb was measured by the method of Saville (Gaston, B., et al., (1992); Stamler, J. S., et al., Proc. Natl. Acad. Sci. USA, 89:444-448 (1992)), and confirmed spectroscopically (inset of FIG. 3A) as described above.
compound,measurement,setting,value
S-nitrosohemoglobin [SNO-Hb],effect on tone of rings contracted with phenylephrine under hypoxia,"[1]; 1 μM, 6-7 torr",caused relaxations
same,effect of glutathione on vasorelaxant response,"[1]; 10 μM glutathione, greatest at <1% O2",potentiates the vasorelaxant response
same,concentration-effect responses in R-structure,[1]; 95% O2,virtually identical to those of native Hb
same,local cerebral blood flow,Sprague-Dawley rats; 21% O2,improved blood flow in all three regions of the brain tested
same,local cerebral blood flow,Sprague-Dawley rats; 100% O2,significantly attenuated
same,local cerebral blood flow,Sprague-Dawley rats; 100% O2+3 ATA,tended to decrease cerebral flow to similar extents
same,change in blood pressure,Rats,significantly less of an increase in blood pressure than Hb
SNO-Hb(FeII): S-nitrosohemoglobin in the deoxy state,rate of RSNO decomposition (and transfer),"[2]; deoxy versus oxy state, PBS pH 7.4",much faster in the deoxy conformation
same,effect on vessel tone in T-structure,[1]; <1% O2 (˜6 torr),modest effect on baseline tone
"Hb(FeII)O2: oxyhemoglobin, cell-free [reference compound]",effect of added glutathione on the dose-response,vascular ring,did not significantly influence the response
same,increase in mean arterial pressure,"Sprague-Dawley rat; 200 nmol/kg bolus, femoral vein, anesthetized rat",20±3 mm Hg and 25 mm Hg
same,time for elevations in blood pressure to reverse,Sprague-Dawley rat; 2-200 nmol/kg bolus,10 to 15 min
N[C@@H](CCC(=O)N[C@@H](CSN=O)C(=O)NCC(=O)O)C(=O)O [S-nitrosoglutathione],formation of intraerythrocytic SNO-Hb,rat red blood cells,not
same,O2 dependence of vasorelaxant effects,"[1]; 95%, 21%, <1% O2",largely independent of PO2
same,brain perfusion,Sprague-Dawley rats; 100% O2 and 100% O2+3 ATA,increased brain perfusion
same,change in blood pressure,Rats,decreased blood pressure
SNO-Hb(FeII)O2: S-nitroso-oxyhemoglobin,effect of added glutathione on the dose-response,vascular ring,potentiates the dose-response
same,activity in vascular ring bioassay,vascular ring,modest NO-like activity
same,blood pressure response,"Sprague-Dawley rat; femoral vein, anesthetized rat",did not exhibit hypertensive effects
SNO-Hb(FeIII): S-nitrosohemoglobin with heme oxidized to FeIII,effect of added glutathione on the dose-response,vascular ring,potentiates the dose-response
same,activity in vascular ring bioassay,vascular ring,vasodilator
same,rate of NO group transfer to glutathione,"[2]; SNO-Hb 100 μM, glutathione 10 mM, versus SNO-Hb(FeII)O2",more rapid
same,"mean arterial pressure, post",Sprague-Dawley rat; after 200 nmol/kg (highest dose),74±6 mm Hg
same,time for blood pressure to normalize,Sprague-Dawley rat; after hypotensive response,10 min
same,"mean arterial pressure, pre",Sprague-Dawley rat; before 200 nmol/kg,108±4 mm Hg
same,blood pressure response,"Sprague-Dawley rat; femoral vein, anesthetized rat",elicited hypotensive responses
